# Test results: PubChem BioAssay (NCI)
#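 Cells were grown in 96-well plates and exposed to each compound for 48 hours at five concentrations; endpoints were interpolated linearly between bracketing concentrations, or set to the highest concentration if not reached. Here, GI50 denotes the concentration required for 50% inhibition of growth. The concentration for full growth arrest is given as TGI.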
# Experiments:
# Assay in all cases: NCI-60 cell line screen, 48 h
# [1] = tested on: SF-295 CNS
# [2] = tested on: CCRF-CEM leukemia
# [3] = tested on: MDA-MB-231 breast
# [4] = tested on: SK-MEL-28 melanoma
# [5] = tested on: RXF 393 renal
# [6] = tested on: TK-10 renal
# [7] = tested on: UACC-62 melanoma
# [8] = tested on: A498 renal
# [9] = tested on: SN12C renal
# [10] = tested on: HCT-116 colon
# [11] = tested on: HT29 colon
# [12] = tested on: SF-268 CNS
# [13] = tested on: MDA-MB-435
# [14] = tested on: OVCAR-4 ovarian
# [15] = tested on: LOX IMVI melanoma
# [16] = tested on: OVCAR-5 ovarian
# [17] = tested on: SK-MEL-5 melanoma
# [18] = tested on: NCI-H23 lung
# [19] = tested on: NCI-H522 lung
# [20] = tested on: ACHN renal
# [21] = tested on: M14 melanoma
# [22] = tested on: OVCAR-8 ovarian
# [23] = tested on: SW-620 colon
# [24] = tested on: HS 578T breast
# [25] = tested on: OVCAR-3 ovarian
# [26] = tested on: RPMI-8226 leukemia
# [27] = tested on: HOP-62 NSCLC
# [28] = tested on: HCT-15 colon
# [29] = tested on: U251 CNS
# [30] = tested on: CAKI-1 renal
# [31] = tested on: NCI-H460 lung
# [32] = tested on: 786-0 renal
# [33] = tested on: SK-OV-3 ovarian
# [34] = tested on: PC-3 prostate
# [35] = tested on: BT-549 breast
# [36] = tested on: A549 NSCLC
# [37] = tested on: UACC-257 melanoma
# [38] = tested on: SK-MEL-2 melanoma
# [39] = tested on: HCC-2998 colon
# [40] = tested on: MOLT-4 leukemia
# [41] = tested on: SR leukemia
# [42] = tested on: SNB-75 CNS
# [43] = tested on: DU-145 prostate
# [44] = tested on: UO-31 renal
# [45] = tested on: SNB-19 CNS
# [46] = tested on: KM12 colon
# [47] = tested on: MALME-3M melanoma
# [48] = tested on: COLO 205 colon
# [49] = tested on: IGROV1 ovarian
# [50] = tested on: K-562 leukemia
# [51] = tested on: NCI/ADR-RES ovarian
# [52] = tested on: T-47D breast
# [53] = tested on: EKVX NSCLC
# [54] = tested on: HOP-92 NSCLC
# [55] = tested on: HL-60(TB) leukemia
# [56] = tested on: MCF7 breast
# [57] = tested on: SF-539 CNS
structure (smiles),measurement,setting,value
CC[C@@H](C(=O)[C@@H](C)[C@@H](O)[C@H](C)[C@@H]1O[C@@H]([C@@H](CC)C(=O)O)CC[C@@H]1C)[C@H]1OC2(C=C[C@@H](O)[C@]3(CC[C@@](C)([C@H]4CC[C@](O)(CC)[C@H](C)O4)O3)O2)[C@H](C)C[C@@H]1C (some centres undefined),GI50,[1],263 nM
same,TGI,[1],19800 nM
same,GI50,[2],285 nM
same,TGI,[2],10700 nM
same,GI50,[3],239 nM
same,TGI,[3],17100 nM
same,GI50,[4],630 nM
same,TGI,[4],1310 nM
same,GI50,[5],48.5 nM
same,TGI,[5],1850 nM
same,GI50,[6],1250 nM
same,TGI,[6],20100 nM
same,GI50,[7],701 nM
same,TGI,[7],1550 nM
same,GI50,[8],27.6 nM
same,TGI,[8],458 nM
same,GI50,[9],140 nM
same,TGI,[9],> 50000 nM
same,GI50,[10],359 nM
same,TGI,[10],14400 nM
same,GI50,[11],231 nM
same,TGI,[11],19700 nM
same,GI50,[12],1700 nM
same,TGI,[12],26300 nM
same,GI50,[13],568 nM
same,TGI,[13],1510 nM
same,GI50,[14],3010 nM
same,TGI,[14],49300 nM
same,GI50,[15],505 nM
same,TGI,[15],> 19000 nM
same,GI50,[16],7870 nM
same,TGI,[16],> 50000 nM
same,GI50,[17],160 nM
same,TGI,[17],534 nM
same,GI50,[18],207 nM
same,TGI,[18],15400 nM
same,GI50,[19],77.4 nM
same,TGI,[19],605 nM
same,GI50,[20],1680 nM
same,TGI,[20],> 50000 nM
same,GI50,[21],790 nM
same,TGI,[21],1880 nM
same,GI50,[22],823 nM
same,TGI,[22],> 48300 nM
same,GI50,[23],733 nM
same,TGI,[23],9140 nM
same,GI50,[24],311 nM
same,TGI,[24],> 50000 nM
same,GI50,[25],101 nM
same,TGI,[25],15100 nM
same,GI50,[26],117 nM
same,TGI,[26],4480 nM
same,GI50,[27],447 nM
same,TGI,[27],20700 nM
same,GI50,[28],1420 nM
same,TGI,[28],> 50000 nM
same,GI50,[29],135 nM
same,TGI,[29],5560 nM
same,GI50,[30],1200 nM
same,TGI,[30],> 50000 nM
same,GI50,[31],324 nM
same,TGI,[31],7790 nM
same,GI50,[32],589 nM
same,TGI,[32],12400 nM
same,GI50,[33],1760 nM
same,TGI,[33],22600 nM
same,GI50,[34],40.8 nM
same,TGI,[34],> 50000 nM
same,GI50,[35],233 nM
same,TGI,[35],2970 nM
same,GI50,[36],233 nM
same,TGI,[36],9770 nM
same,GI50,[37],241 nM
same,TGI,[37],5490 nM
same,GI50,[38],622 nM
same,TGI,[38],2000 nM
same,GI50,[39],105 nM
same,TGI,[39],10500 nM
same,GI50,[40],726 nM
same,TGI,[40],2500 nM
same,GI50,[41],81.5 nM
same,TGI,[41],1780 nM
same,GI50,[42],1200 nM
same,TGI,[42],> 24200 nM
same,GI50,[43],1580 nM
same,TGI,[43],> 50000 nM
same,GI50,[44],1270 nM
same,TGI,[44],> 41400 nM
same,GI50,[45],577 nM
same,TGI,[45],> 14200 nM
same,GI50,[46],766 nM
same,TGI,[46],8430 nM
same,GI50,[47],224 nM
same,TGI,[47],860 nM
same,GI50,[48],124 nM
same,TGI,[48],5470 nM
same,GI50,[49],1840 nM
same,TGI,[49],> 50000 nM
same,GI50,[50],213 nM
same,TGI,[50],3390 nM
same,GI50,[51],434 nM
same,TGI,[51],> 50000 nM
same,GI50,[52],174 nM
same,TGI,[52],10400 nM
same,GI50,[53],220 nM
same,TGI,[53],> 32000 nM
same,GI50,[54],82.9 nM
same,TGI,[54],5450 nM
same,GI50,[55],89.4 nM
same,TGI,[55],316 nM
same,GI50,[56],154 nM
same,TGI,[56],> 39200 nM
same,GI50,[57],434 nM
same,TGI,[57],8850 nM
